The source of these data is patent US10052326B1, “Antihepatotoxic agents” (KING SAUD UNIVERSITY, priority 2017, dated 2018).

Data set [1] relates to mice. Put plainly: Acute toxicity test, oral administration. The class given is in vivo. Particulars: in 0.5% CMC, observation up to 14 days. How it is done:
Acute toxicity test: The acute toxicity test was performed on mice, for oral administration. DHPB-2 was dissolved in 0.5% CMC (carboxymethylcellulose) in water and administered at various doses, ranging from ([…]), to different groups of mice. The animals were observed continuously for 1 h and then at half hourly intervals for 4 h on the first day for clinical signs and symptoms of toxicity, and further up to 72 h followed by 14 days, for any mortality.

The test system of data set [2] is CCl4-induced hepatotoxicity. Put plainly: Estimation of serum marker enzymes and bilirubin in CCl4-intoxicated rats. The class given is in vivo, Wistar albino rats. Particulars: 20 mg/kg orally for 2 weeks before CCl4, vs CCl4 group. Here is the method:
(§1) Animals and study design: Wistar albino rats (180-200 g) were obtained from the Experimental Animal Care Center of the College of Pharmacy, King Saud University, Riyadh. Animals were maintained on standard chow diet and housed in polycarbonate cages in a room free from any source of chemical contamination, artificially illuminated (12 h dark/light cycle) and thermally controlled (25±2° C.) at the animal facility. All animals received humane care in compliance with the guidelines of the Ethics Committee of the Experimental Animal Care Society, College of Pharmacy, King Saud University, Riyadh, Saudi Arabia. After a one-week acclimatization period, animals were randomly allocated into 5 groups and treated as follows: group (1), untreated control; and groups 2, 3, 4, and 5 received 0.25 mL of CCl4 in liquid paraffin (1:1) 1.25 mL/kg body weight intraperitoneally (IP). Group 2 was administered only CCl4. Groups 3 and 4 received DHBP-2 (10 mg/kg) and (20 mg/kg/day) orally for 2 weeks, respectively. Rats in group 5 were treated with (10 mg/kg) orally with silymarin for similar days. The blood was collected by cardiac puncture after 24 hours following the administration of CCl4, allowed to clot, and the serum was then separated. After collecting the blood, the animals were sacrificed using ether anesthesia. The rat livers were dissected out and used for biochemical estimations and histological assessment.
Estimation of marker enzymes: Serum glutamate oxaloacetate transaminase (SGOT/AST), serum glutamate pyruvate transaminase (SGPT/ALT) (Reitman S. A. et al., Am. J. Clin. Pathol. 1957, 28 (1), 56-63), alkaline phosphatase (ALP), gamma-glutamyl transferase (GGT) and bilirubin were determined using Reflotron Plus Analyzer and Roche kits (Roche Diagnostics GmbH, Mannheim, Germany) (King E. J. et al., Practical Clinical Biochemistry, H. Varley, Ed., CBS publishers, New Delhi, India, 1988).

The subject of data set [3] is CCl4-induced hepatotoxicity. Nature of the data set: Estimation of hepatic non-protein sulfhydryls (NP-SH) in CCl4-intoxicated rats. Particulars: liver tissue; for NP-SH: n = 6, mean. Type of data set: in vivo, Wistar albino rats. Here is the method:
as §1
Estimation of non-protein sulfhydryls (NP-SH): Hepatic non-protein sulfhydryls were measured according to the method of Sedlak and Lindsay et. al., Analytical Biochemistry C, 1968, 25, 192-205. The livers were homogenized in ice-cold 0.02 mmol/L ethylenediaminetetraacetic acid (EDTA). The absorbance was measured within 5 min. of addition of 5,5′-dithio-bis(2-nitrobenzoic acid) (DTNB) at 412 nm against a reagent blank.

The subject of data set [4] is CCl4-induced hepatotoxicity. Put plainly: Serum lipid profile in CCl4-intoxicated rats. The class given is in vivo, Wistar albino rats. Particulars: 20 mg/kg, two week pretreatment before CCl4. Here is the method: as §1
The subject of data set [5] is CCl4-induced hepatotoxicity. Nature of the data set: Determination of total protein (TP) in CCl4-intoxicated rats. The settings on record: liver tissue; for Total Protein: n = 6, mean. Type of data set: in vivo, Wistar albino rats. Here is the method: as §1
Determination of total protein (TP): Total protein was estimated by the kit method, supplied by Crescent Diagnostics, Jeddah, Saudi Arabia. The absorbance of this complex at 546 nm is proportional to the protein concentration. […]

For data set [6], the system named is CCl4-induced hepatotoxicity. Put plainly: Determination of malondialdehyde (MDA) in liver tissue of CCl4-intoxicated rats. The class given is in vivo, Wistar albino rats. Here is the method: as §1
Determination of malondialdehyde (MDA): The method reported by (Utley H. C. et al., Archives of Biochemistry Biophysics, 1967, 260, 521-531) was followed. Briefly, the liver tissues were removed, and tissue was homogenized in 0.15 M KCl (at 4° C.; Potter-Elvehjem type C homogenizer) to give a 10% w/v homogenate. The absorbance of the solution was then read at 532 nm. The content of malondialdehyde (nmol/g wet tissue) was then calculated, by reference to a standard curve of malondialdehyde solution.

Data set [7] has as its system CCl4-induced hepatotoxicity in hepatocytes of rats. Nature of the data set: Histopathological evaluation of liver of CCl4-intoxicated rats. The class given is in vivo, Wistar albino rats. The settings on record: light micrographs, hematoxylin and eosin. How it is done: as §1, with “The rat livers were dissected out and used for biochemical estimations and histological assessment.” left out

As usually defined, the melting point is the temperature, or range, at which the solid turns liquid.

On to `O=C1NC=C(C(=O)c2ccc3c(c2)OCCO3)C(c2ccc([N+](=O)[O-])cc2)N1` (centres unmarked) [DHPB-2, 4-(4-Nitrophenyl)-5-(2,3-dihydro-1,4-benzodioxin-6-ylcarbonyl)-3,4-dihydro-pyrimidin2(1H)-one], for which the “dose up to which no toxicity symptoms and no morbidity were observed” value in data set [1] is recorded as “up to 500 mg/kg”. Besides, in data set [2], the ALP level entry is on record as “significant decrease”, the ALT level entry is “significant decrease”, the AST level result is “significant decrease” and the GGT level entry is recorded as “significant decrease”. Further, the bilirubin level result in data set [2] is “significant decrease”. The “NP-SH level (in words)” value in data set [3] (20 mg/kg, vs CCl4 group) is “significantly enhanced”. The NP-SH in data set [3] (dose 10 mg/kg + CCl4) was 4.30 nmol/g. For the same molecule, the NP-SH in data set [3] (dose 20 mg/kg + CCl4) is recorded as 6.16 nmol/g. In addition, in data set [4], the HDL cholesterol level result was “significantly improved”, the LDL cholesterol level entry was “significantly reduced”, the VLDL cholesterol level entry is “significantly reduced” and the cholesterol level entry is listed as “significantly reduced”. Besides, the triglycerides level entry in data set [4] is listed as “significantly reduced”. The “TP level (in words)” value in data set [5] (20 mg/kg, vs CCl4 group) was “significantly enhanced”. Moreover, the “Total Protein” value in data set [5] (dose 10 mg/kg + CCl4) is recorded as 38.11 g/L. Further, the “Total Protein” value in data set [5] (dose 20 mg/kg + CCl4) came out at 74.03 g/L. Also, in data set [6] (20 mg/kg, vs CCl4 group), the “level of MDA (in words)” value was “significant reduction”. In addition, the MDA in data set [6] (dose 10 mg/kg + CCl4, n = 6, mean) worked out at 6.84 nmol/g. Moreover, in data set [6] (dose 20 mg/kg + CCl4, n = 6, mean), the MDA is recorded as 1.59 nmol/g. Besides, in data set [7] (10 mg/kg/day oral pretreatment), the “histopathological assessment of the liver” value was “marked improvement in liver parenchyma”. The “histopathological assessment of the liver” value in data set [7] (20 mg/kg/day oral pretreatment) is listed as “marked improvement in liver parenchyma”.
In turn, `CCOc1ccc(C2NC(=O)NC=C2C(=O)c2ccc3c(c2)OCCO3)cc1` (centres unmarked) [DHPB-6, 4-(4-Ethoxyphenyl)-5-(2,3-dihydro-1,4-benzodioxin-6-ylcarbonyl)-3,4-dihydro-pyrimidin-2(1H)-one] displayed a melting point of 210 to 212 °C.
